Measurements from patent US20080009418A1, “Selective Inhibitors” (Alchemia LTD., priority 2004, published 2008).

Legend:
[1] = target: T1, Human δ-opioid (DOP) (Homo sapiens, UniProt P41143); experiment: Radioligand binding, human δ-opioid (DOP) membranes, FlashPlate, [3H]-Bremazocine; conditions: compound at 10 μM, [3H]-Bremazocine; for A1: inhibition of radioligand binding: human DOP membranes
T1 construct: purchased Perkin Elmer Biosignal
Procedure, shortened: (§1)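 Cloned human receptor membranes were coated onto FlashPlate wells and incubated with radioligand and compound (added from a 0.5 mM DMSO daughter plate) for 1 hour at room temperature in the dark. Scintillation counting gave percent inhibition, with DMSO defining total and reference ligand defining non-specific binding.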

[2] = target: T2, Human Melanocortin (MC3) (Homo sapiens, UniProt P41968); experiment: Radioligand binding, human melanocortin MC3 membranes, FlashPlate, [125I]-NDP-αMSH; conditions: compound at 10 μM, [125I]-NDP-αMSH; for A3: inhibition of radioligand binding: human MC3 membranes
T2 construct: purchased Perkin Elmer Biosignal
T2 sequence (P41968 whole entry): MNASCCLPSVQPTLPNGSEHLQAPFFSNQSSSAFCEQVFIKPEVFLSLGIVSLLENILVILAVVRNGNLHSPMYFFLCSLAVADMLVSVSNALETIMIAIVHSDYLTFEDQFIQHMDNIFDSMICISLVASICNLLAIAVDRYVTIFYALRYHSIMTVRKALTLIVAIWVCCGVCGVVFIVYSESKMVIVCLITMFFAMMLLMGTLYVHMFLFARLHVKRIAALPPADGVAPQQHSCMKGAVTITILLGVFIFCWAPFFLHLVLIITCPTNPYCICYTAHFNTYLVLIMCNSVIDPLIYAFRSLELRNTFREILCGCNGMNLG
Procedure, shortened: as §1

[3] = target: T3, Human melanin-concentrating hormone (MCH1) (Homo sapiens, UniProt Q99705); experiment: Radioligand binding, human melanin-concentrating hormone MCH1 membranes, FlashPlate, [125I]-S36057; conditions: compound at 10 μM; for A6: inhibition of radioligand binding: [125I]-S36057, human MCH1 membranes
T3 construct: purchased Perkin Elmer Biosignal
T3 sequence (Q99705 whole entry): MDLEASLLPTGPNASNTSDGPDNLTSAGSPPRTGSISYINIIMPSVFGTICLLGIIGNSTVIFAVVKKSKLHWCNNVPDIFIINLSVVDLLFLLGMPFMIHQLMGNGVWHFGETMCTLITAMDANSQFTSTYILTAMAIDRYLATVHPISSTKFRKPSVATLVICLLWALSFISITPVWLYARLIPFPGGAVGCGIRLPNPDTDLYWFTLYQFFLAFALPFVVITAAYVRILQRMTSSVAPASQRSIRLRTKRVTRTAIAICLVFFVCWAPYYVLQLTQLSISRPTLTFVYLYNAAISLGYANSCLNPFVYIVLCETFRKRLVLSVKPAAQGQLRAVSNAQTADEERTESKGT
Procedure, shortened: as §1

[4] = target: T4, Human melanocortin (MC5) (Homo sapiens, UniProt P33032); experiment: Radioligand binding, human melanocortin MC5 membranes, FlashPlate, [125I]-NDP-αMSH; conditions: compound at 10 μM, [125I]-NDP-αMSH; for A5: inhibition of radioligand binding: human MC5 membranes
T4 construct: purchased Perkin Elmer Biosignal
T4 sequence (P33032 whole entry): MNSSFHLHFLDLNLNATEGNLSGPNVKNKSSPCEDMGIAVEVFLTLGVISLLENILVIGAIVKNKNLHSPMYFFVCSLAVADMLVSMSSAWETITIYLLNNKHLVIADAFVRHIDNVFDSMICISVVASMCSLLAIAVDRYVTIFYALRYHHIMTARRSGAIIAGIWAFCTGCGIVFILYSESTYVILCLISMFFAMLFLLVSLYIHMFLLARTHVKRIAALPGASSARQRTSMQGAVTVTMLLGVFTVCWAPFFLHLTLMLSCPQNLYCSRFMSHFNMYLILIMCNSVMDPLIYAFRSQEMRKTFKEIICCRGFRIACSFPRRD
Procedure, shortened: as §1

[5] = target: T5, Human opioid (ORL1) (Homo sapiens, UniProt P41146); experiment: Radioligand binding, human opioid ORL1 membranes, FlashPlate, [125I]-Nociceptin; conditions: compound at 10 μM, [125I]-Nociceptin; for A10: inhibition of radioligand binding: human ORL1 membranes
T5 construct: purchased Perkin Elmer Biosignal
T5 sequence (P41146 whole entry): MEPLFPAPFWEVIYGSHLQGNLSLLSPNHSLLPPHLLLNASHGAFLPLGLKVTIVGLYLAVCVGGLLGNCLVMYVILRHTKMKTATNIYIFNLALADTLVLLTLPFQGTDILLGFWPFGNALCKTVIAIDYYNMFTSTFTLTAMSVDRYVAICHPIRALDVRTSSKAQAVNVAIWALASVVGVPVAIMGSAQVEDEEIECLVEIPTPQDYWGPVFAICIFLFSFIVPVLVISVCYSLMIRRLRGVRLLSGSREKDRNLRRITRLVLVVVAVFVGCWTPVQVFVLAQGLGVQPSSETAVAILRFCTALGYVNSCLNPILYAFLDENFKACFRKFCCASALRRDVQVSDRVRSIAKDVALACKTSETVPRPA
Procedure, shortened: as §1

[6] = target: T6, Human Melanocortin (MC4) (Homo sapiens, UniProt P32245); experiment: Radioligand binding, human melanocortin MC4 membranes, FlashPlate, [125I]-NDP-αMSH; conditions: compound at 10 μM, [125I]-NDP-αMSH; for A4: inhibition of radioligand binding: human MC4 membranes
T6 construct: purchased Perkin Elmer Biosignal
T6 sequence (P32245 whole entry): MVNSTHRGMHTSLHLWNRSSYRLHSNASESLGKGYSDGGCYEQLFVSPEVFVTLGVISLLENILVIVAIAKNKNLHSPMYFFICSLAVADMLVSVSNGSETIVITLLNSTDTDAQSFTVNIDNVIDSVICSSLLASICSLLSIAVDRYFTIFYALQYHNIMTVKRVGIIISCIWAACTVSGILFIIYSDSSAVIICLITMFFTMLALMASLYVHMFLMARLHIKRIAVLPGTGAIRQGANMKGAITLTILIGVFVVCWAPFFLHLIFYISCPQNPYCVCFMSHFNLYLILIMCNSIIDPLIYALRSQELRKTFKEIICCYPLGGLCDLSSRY
Procedure, shortened: as §1

[7] = target: T7, Human neuropeptide Y (NPY-Y1) (Homo sapiens, UniProt P25929); experiment: Radioligand binding, human neuropeptide Y NPY-Y1 membranes, FlashPlate, [125I]-PYY; conditions: compound at 10 μM, [125I]-PYY; for A9: inhibition of radioligand binding: human NPY-Y1 membranes
T7 construct: purchased Perkin Elmer Biosignal
T7 sequence (P25929 1-384): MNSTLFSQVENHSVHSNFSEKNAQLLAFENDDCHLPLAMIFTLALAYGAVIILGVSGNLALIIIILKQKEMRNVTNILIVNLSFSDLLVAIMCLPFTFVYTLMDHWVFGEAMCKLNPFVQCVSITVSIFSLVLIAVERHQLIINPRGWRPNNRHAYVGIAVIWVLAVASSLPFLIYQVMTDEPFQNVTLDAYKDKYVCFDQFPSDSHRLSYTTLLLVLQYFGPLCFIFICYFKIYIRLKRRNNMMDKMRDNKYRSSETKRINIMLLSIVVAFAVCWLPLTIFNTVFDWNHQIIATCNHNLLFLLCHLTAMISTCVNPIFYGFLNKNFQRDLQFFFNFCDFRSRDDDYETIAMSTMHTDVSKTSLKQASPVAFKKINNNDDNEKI
Procedure, shortened: as §1

[8] = target: T8, Human μ-opioid (MOP) (Homo sapiens, UniProt P35372); experiment: Radioligand binding, human μ-opioid (MOP) membranes, FlashPlate, [3H]-Naloxone; conditions: compound at 10 μM, [3H]-Naloxone; for A7: inhibition of radioligand binding: human MOP membranes
T8 construct: purchased Perkin Elmer Biosignal
T8 sequence (P35372 whole entry): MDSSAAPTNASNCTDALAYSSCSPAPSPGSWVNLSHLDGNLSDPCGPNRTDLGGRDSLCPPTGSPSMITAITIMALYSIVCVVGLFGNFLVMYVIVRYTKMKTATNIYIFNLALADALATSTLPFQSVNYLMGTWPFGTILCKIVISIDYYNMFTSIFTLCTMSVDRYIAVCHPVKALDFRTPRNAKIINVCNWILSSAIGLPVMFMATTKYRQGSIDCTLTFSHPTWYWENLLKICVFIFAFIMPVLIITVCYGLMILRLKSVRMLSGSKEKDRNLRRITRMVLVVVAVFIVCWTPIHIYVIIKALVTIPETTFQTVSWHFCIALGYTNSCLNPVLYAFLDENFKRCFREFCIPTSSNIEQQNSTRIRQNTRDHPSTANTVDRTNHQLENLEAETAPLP
Procedure, shortened: as §1

[9] = target: T9, Mouse urotensin (mUR2) (Mus musculus, UniProt Q8VIH9); experiment: Radioligand binding, mouse urotensin mUR2 membranes, FlashPlate, [125I]-Urotensin II; conditions: compound at 10 μM, [125I]-Urotensin II; for A11: inhibition of radioligand binding: mouse mUR2 membranes
T9 construct: purchased Perkin Elmer Biosignal
T9 sequence (Q8VIH9 1-385): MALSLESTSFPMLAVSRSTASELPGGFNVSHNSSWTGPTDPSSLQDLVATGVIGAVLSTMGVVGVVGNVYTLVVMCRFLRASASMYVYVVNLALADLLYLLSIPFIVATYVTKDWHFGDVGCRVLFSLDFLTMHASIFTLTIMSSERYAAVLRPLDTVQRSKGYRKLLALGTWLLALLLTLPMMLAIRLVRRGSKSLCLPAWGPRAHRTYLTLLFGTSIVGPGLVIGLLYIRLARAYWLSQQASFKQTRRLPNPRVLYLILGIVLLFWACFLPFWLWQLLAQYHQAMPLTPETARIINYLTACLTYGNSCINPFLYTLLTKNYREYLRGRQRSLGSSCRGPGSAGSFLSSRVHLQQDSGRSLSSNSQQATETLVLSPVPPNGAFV
Procedure, shortened: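 Cloned mouse urotensin (mUR2) receptor membranes from Perkin Elmer Biosignal were immobilized in FlashPlate microplates using a proprietary coating. Each well got 19.5 μl buffer, then 0.5 μl of DMSO, reference ligand, or compound. Adding 5 μl of [125I]-Urotensin II, diluted to 5× final concentration in binding buffer, started binding. Plates were sealed with TopSeal-A and incubated 1 hour at room temperature in the dark. Wells were counted for 30 seconds each on a TopCount after a 60-second delay, and percentage inhibition was calculated.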

[10] = target: T10, Human neurokinin (NK1) (Homo sapiens, UniProt P25103); experiment: Radioligand binding, human neurokinin NK1 membranes, filtration, [125I]-Substance P; conditions: compound at 10 μM, [125I]-Substance P; for A8: inhibition of radioligand binding: human NK1 membranes
T10 construct: purchased Perkin Elmer Biosignal
T10 sequence (P25103 whole entry): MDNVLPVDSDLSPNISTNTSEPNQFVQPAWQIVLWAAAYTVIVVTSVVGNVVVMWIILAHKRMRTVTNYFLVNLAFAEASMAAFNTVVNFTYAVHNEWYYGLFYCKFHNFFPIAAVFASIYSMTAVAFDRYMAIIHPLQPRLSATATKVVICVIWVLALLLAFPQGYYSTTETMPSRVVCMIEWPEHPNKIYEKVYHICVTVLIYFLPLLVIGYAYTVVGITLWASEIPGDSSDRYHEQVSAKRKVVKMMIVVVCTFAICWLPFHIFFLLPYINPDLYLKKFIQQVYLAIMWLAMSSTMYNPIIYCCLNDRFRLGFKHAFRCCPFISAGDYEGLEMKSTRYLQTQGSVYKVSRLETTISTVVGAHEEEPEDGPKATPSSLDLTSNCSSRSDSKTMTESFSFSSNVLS
Procedure, shortened: (§2)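 Filtration binding on cloned human receptor membranes (1 Unit/well), [125I]-Substance P for NK1 and [3H]-Diprenorphine for KOP, 1 h at room temperature. Filters PEI-presoaked, washed with cold 50 mM Tris-HCl pH 7.4, counted by scintillation; percent inhibition calculated, reference ligand defining non-specific binding.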

[11] = target: T11, Human κ-Opioid (KOP) (Homo sapiens, UniProt P41145); experiment: Radioligand binding, human κ-opioid (KOP) membranes, filtration, [3H]-Diprenorphine; conditions: compound at 10 μM, [3H]-Diprenorphine; for A2: inhibition of radioligand binding: human KOP membranes
T11 construct: purchased Perkin Elmer Biosignal
T11 sequence (P41145 whole entry): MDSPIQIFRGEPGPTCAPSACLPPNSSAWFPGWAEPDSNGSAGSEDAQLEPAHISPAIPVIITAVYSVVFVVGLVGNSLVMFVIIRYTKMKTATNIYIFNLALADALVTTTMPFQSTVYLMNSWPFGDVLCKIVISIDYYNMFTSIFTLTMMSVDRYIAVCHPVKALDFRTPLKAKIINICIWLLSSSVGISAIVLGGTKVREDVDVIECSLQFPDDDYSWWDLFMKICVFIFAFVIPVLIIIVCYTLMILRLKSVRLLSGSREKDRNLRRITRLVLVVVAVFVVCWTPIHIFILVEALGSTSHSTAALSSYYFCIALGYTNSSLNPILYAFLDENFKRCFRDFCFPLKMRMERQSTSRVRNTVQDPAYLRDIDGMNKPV
Procedure, shortened: as §2

T1 sequence (P41143 whole entry): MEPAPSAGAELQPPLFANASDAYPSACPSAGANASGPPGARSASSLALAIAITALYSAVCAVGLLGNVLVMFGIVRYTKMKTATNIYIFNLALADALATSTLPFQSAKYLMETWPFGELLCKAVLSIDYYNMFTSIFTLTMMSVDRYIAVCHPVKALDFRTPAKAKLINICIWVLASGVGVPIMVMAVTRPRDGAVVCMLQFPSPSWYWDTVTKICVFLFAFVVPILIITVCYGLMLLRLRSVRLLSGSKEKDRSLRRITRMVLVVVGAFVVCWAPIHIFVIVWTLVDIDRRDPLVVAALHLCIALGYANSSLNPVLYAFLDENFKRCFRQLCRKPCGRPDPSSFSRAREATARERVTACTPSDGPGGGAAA

NCCC(=O)N[C@H]1C(OCc2ccc3ccccc3c2)O[C@H](COCc2ccccc2)[C@@H](O)[C@@H]1OCc1ccc2ccccc2c1 (stereo partly shown) [compound 444]
A1: inhibition of radioligand binding [1]: − (“−” indicates less than 50% inhibition at 10 μM) | A3: inhibition of radioligand binding ([2]; 10 µM): − (“−” indicates less than 50% inhibition at 10 μM) | A6: inhibition of radioligand binding ([3]; 10 µM): − (“−” indicates less than 50% inhibition at 10 μM) | A5: inhibition of radioligand binding ([4]; 10 µM): − (“−” indicates less than 50% inhibition at 10 μM) | A10: inhibition of radioligand binding ([5]; 10 µM): − (“−” indicates less than 50% inhibition at 10 μM) | A4: inhibition of radioligand binding ([6]; 10 µM): − (“−” indicates less than 50% inhibition at 10 μM) | A9: inhibition of radioligand binding [7]: − (“−” indicates less than 50% inhibition at 10 μM) | A7: inhibition of radioligand binding ([8]; 10 µM): − (“−” indicates less than 50% inhibition at 10 μM) | A11: inhibition of radioligand binding [9]: − (“−” indicates less than 50% inhibition at 10 μM) | A8: inhibition of radioligand binding [10]: + (“+” indicates greater than 50% inhibition at 10 μM) | A2: inhibition of radioligand binding ([11]; 10 µM): − (“−” indicates less than 50% inhibition at 10 μM)

CO[C@H]1[C@H](O)[C@@H](COCc2ccc(Cl)cc2)OC(OCc2ccc(Cl)cc2)[C@@H]1NC(=O)CNC(=N)N (stereo partly shown) [compound 105]
A1 radioligand binding, percentage inhibition [1]: − (“−” indicates less than 50% inhibition at 10 μM) | A3 radioligand binding, percentage inhibition [2]: − (“−” indicates less than 50% inhibition at 10 μM) | A6 radioligand binding, percentage inhibition ([3]; [125I]-S36057): − (“−” indicates less than 50% inhibition at 10 μM) | A5 radioligand binding, percentage inhibition [4]: + (“+” indicates greater than 50% inhibition at 10 μM) | A10 radioligand binding, percentage inhibition [5]: − (“−” indicates less than 50% inhibition at 10 μM) | A4 radioligand binding, percentage inhibition [6]: + (“+” indicates greater than 50% inhibition at 10 μM) | A9 radioligand binding, percentage inhibition [7]: − (“−” indicates less than 50% inhibition at 10 μM) | A7 radioligand binding, percentage inhibition [8]: − (“−” indicates less than 50% inhibition at 10 μM) | A11 radioligand binding, percentage inhibition [9]: − (“−” indicates less than 50% inhibition at 10 μM) | A8 radioligand binding, percentage inhibition [10]: + (“+” indicates greater than 50% inhibition at 10 μM) | A2 radioligand binding, percentage inhibition [11]: − (“−” indicates less than 50% inhibition at 10 μM)

N=C(N)NCCC(=O)NC1C(OCc2ccc(-c3ccccc3)cc2)OC(COCc2ccc3ccccc3c2)C(O)C1OCc1ccc(Cl)cc1 (stereo not shown) [compound 408]
A1: inhibition of radioligand binding [1]: − (“−” indicates less than 50% inhibition at 10 μM) | A3: inhibition of radioligand binding [2]: + (“+” indicates greater than 50% inhibition at 10 μM) | A6: inhibition of radioligand binding [3]: + (“+” indicates greater than 50% inhibition at 10 μM) | A5: inhibition of radioligand binding [4]: + (“+” indicates greater than 50% inhibition at 10 μM) | A10: inhibition of radioligand binding [5]: + (“+” indicates greater than 50% inhibition at 10 μM) | A4: inhibition of radioligand binding [6]: + (“+” indicates greater than 50% inhibition at 10 μM) | A9: inhibition of radioligand binding [7]: − (“−” indicates less than 50% inhibition at 10 μM) | A7: inhibition of radioligand binding [8]: − (“−” indicates less than 50% inhibition at 10 μM) | A11: inhibition of radioligand binding [9]: − (“−” indicates less than 50% inhibition at 10 μM) | A8: inhibition of radioligand binding [10]: + (“+” indicates greater than 50% inhibition at 10 μM) | A2: inhibition of radioligand binding [11]: − (“−” indicates less than 50% inhibition at 10 μM)

COCC1OC(OCc2ccc3ccccc3c2)C(NC(=O)CCN)C(OCc2ccc3ccccc3c2)C1O (stereo not shown) [compound 545]
A1: inhibition of radioligand binding, human δ-opioid (DOP) [1]: − (“−” indicates less than 50% inhibition at 10 μM) | A3: inhibition of radioligand binding, human melanocortin (MC3) [2]: − (“−” indicates less than 50% inhibition at 10 μM) | A6: inhibition of radioligand binding, human melanin-concentrating hormone (MCH1) ([3]; [125I]-S36057): − (“−” indicates less than 50% inhibition at 10 μM) | A5: inhibition of radioligand binding, human melanocortin (MC5) ([4]; 10 µM): − (“−” indicates less than 50% inhibition at 10 μM) | A10: inhibition of radioligand binding, human opioid (ORL1) [5]: − (“−” indicates less than 50% inhibition at 10 μM) | A4: inhibition of radioligand binding, human melanocortin (MC4) [6]: − (“−” indicates less than 50% inhibition at 10 μM) | A9: inhibition of radioligand binding, human neuropeptide Y (NPY-Y1) [7]: − (“−” indicates less than 50% inhibition at 10 μM) | A7: inhibition of radioligand binding, human μ-opioid (MOP) [8]: − (“−” indicates less than 50% inhibition at 10 μM) | A11: inhibition of radioligand binding, mouse urotensin (mUR2) [9]: − (“−” indicates less than 50% inhibition at 10 μM) | A8: inhibition of radioligand binding, human neurokinin (NK1) ([10]; 10 µM): + (“+” indicates greater than 50% inhibition at 10 μM) | A2: inhibition of radioligand binding, human κ-opioid (KOP) [11]: − (“−” indicates less than 50% inhibition at 10 μM)

N=C(N)NCC(=O)NC1C(OCc2ccc(Cl)cc2)OC(COCc2ccc(Cl)cc2)C(O)C1OCc1ccc2ccccc2c1 (stereo not shown) [compound 422]
A1: inhibition of radioligand binding [1]: − (“−” indicates less than 50% inhibition at 10 μM) | A3: inhibition of radioligand binding [2]: + (“+” indicates greater than 50% inhibition at 10 μM) | A6: inhibition of radioligand binding [3]: + (“+” indicates greater than 50% inhibition at 10 μM) | A5: inhibition of radioligand binding [4]: + (“+” indicates greater than 50% inhibition at 10 μM) | A10: inhibition of radioligand binding [5]: + (“+” indicates greater than 50% inhibition at 10 μM) | A4: inhibition of radioligand binding [6]: + (“+” indicates greater than 50% inhibition at 10 μM) | A9: inhibition of radioligand binding [7]: − (“−” indicates less than 50% inhibition at 10 μM) | A7: inhibition of radioligand binding [8]: − (“−” indicates less than 50% inhibition at 10 μM) | A11: inhibition of radioligand binding [9]: − (“−” indicates less than 50% inhibition at 10 μM) | A8: inhibition of radioligand binding [10]: + (“+” indicates greater than 50% inhibition at 10 μM) | A2: inhibition of radioligand binding [11]: − (“−” indicates less than 50% inhibition at 10 μM)
